The compounds below were run against DNA-PK (Homo sapiens, UniProt P78527) (assay: DNA-PK Inhibition Assay (standard radiometric kinase assay, 33P-ATP, peptide substrate)). Details: radiometric assay, approximately 6 nM DNA-PK, 100 μM ATP, 45 min; fit to competitive tight-binding inhibition; read-out: Ki for the inhibition of DNA-PK.
Format: biochemical
Method: Compounds were screened for their ability to inhibit DNA-PK kinase using a standard radiometric assay. Briefly, in this kinase assay the transfer of the terminal ^33P-phosphate in ^33P-ATP to a peptide substrate is interrogated. The assay was carried out in 384-well plates to a final volume of 50 μL per well containing approximately 6 nM DNA-PK, 50 mM HEPES (pH 7.5), 10 mM MgCl2, 25 mM NaCl, 0.01% BSA, 1 mM DTT, 10 μg/mL sheared double-stranded DNA (obtained from Sigma), 0.8 mg/mL DNA-PK peptide (Glu-Pro-Pro-Leu-Ser-Gln-Glu-Ala-Phe-Ala-Asp-Leu-Trp-Lys-Lys-Lys, obtained from American Peptide), and 100 μM ATP. Accordingly, compounds of the invention were dissolved in DMSO to make 10 mM initial stock solutions. Serial dilutions in DMSO were then made to obtain the final solutions for the assay. A 0.75 μL aliquot of DMSO or inhibitor in DMSO was added to each well, followed by the addition of ATP substrate solution containing ^33P-ATP (obtained from Perkin Elmer). The reaction was started by the addition of DNA-PK, peptide and ds-DNA. After 45 min, the reaction was quenched with 25 μL of 5% phosphoric acid. The reaction mixture was transferred to MultiScreen HTS 384-well PH plates (obtained from Millipore), allowed to bind for one hour, and washed three times with 1% phosphoric acid. Following the addition of 50 μL of Ultima Gold™ high efficiency scintillant (obtained from Perkin Elmer), the samples were counted in a Packard TopCount NXT Microplate Scintillation and Luminescence Counter (Packard BioScience). The Ki values were calculated using Microsoft Excel Solver macros to fit the data to the kinetic model for competitive tight-binding inhibition.

Ki, < 100 nM:
Cc1ncc(N[C@H]2CC[C@@H](Oc3cc(N4CCOCC4)cc4nccnc34)CC2)cn1 [Compound 450]
Fc1c(N[C@H]2CC[C@@H](Oc3cc(N4CCOCC4)cc4nccnc34)CC2)ncnc1N1CCOCC1 [Compound 511]
CC(=O)N1CCC(NC(=O)N[C@H]2CC[C@@H](Oc3cc(N4CCOCC4)cc4nccnc34)CC2)CC1 [Compound 364]
OC(c1ccc(N[C@H]2CC[C@@H](Oc3cc(N4CCOCC4)cc4nccnc34)CC2)nc1)C(F)(F)F (stereo partly shown) [Compound 630]
FC(F)(F)c1ccc(N[C@H]2CC[C@@H](Oc3cc(N4CCOCC4)cc4nccnc34)CC2)cn1 [Compound 427]
OCc1cnc2cc(N3CCOCC3)cc(O[C@H]3CC[C@@H](Nc4ncccn4)CC3)c2n1 [Compound 617]
OCc1cccnc1N[C@H]1CC[C@@H](Oc2cc(N3CCOCC3)cc3nccnc23)CC1 [Compound 584]
CN1CCC(c2cnc(N(C)[C@H]3CC[C@@H](Oc4cc(N5CCOCC5)cc5nccnc45)CC3)nc2)CC1 [Compound 657]
c1cnc2c(O[C@H]3CC[C@@H](Nc4ncc5c(n4)OCC5)CC3)cc(N3CCOCC3)cc2n1 [Compound 621]
Cc1ncccc1N[C@H]1CC[C@@H](Oc2cc(N3CCOCC3)cc3nccnc23)CC1 [Compound 442]
c1cc2c(c(N[C@H]3CC[C@@H](Oc4cc(N5CCOCC5)cc5nccnc45)CC3)n1)CCN2 [Compound 371]
c1cnc(N[C@H]2CC[C@@H](Oc3cc(N4CC5CC(C4)O5)cc4nccnc34)CC2)nc1 [Compound 291, N-[4-[7-(6-oxa-3-azabicyclo[3.1.1]heptan-3-yl)quinoxalin-5-yl]oxycyclohexyl]pyrimidin-2-amine]
O=C(O)c1cccc(N[C@H]2CC[C@@H](Oc3cc(N4CCOCC4)cc4nccnc34)CC2)n1 [Compound 419]
Clc1cc(N[C@H]2CC[C@@H](Oc3cc(N4CCOCC4)cc4nccnc34)CC2)nc(C2CC2)n1 [Compound 605]
c1cnc(NC[C@H]2C[C@@H](Oc3cc(N4CCOCC4)cc4nccnc34)C2)nc1 [Compound 307]
c1cc2ccoc2c(N[C@H]2CC[C@@H](Oc3cc(N4CCOCC4)cc4nccnc34)CC2)n1 [Compound 470]
O=Cc1cnc2cc(N3CCOCC3)cc(O[C@H]3CC[C@@H](Nc4ncccn4)CC3)c2n1 [Compound 620]
CN(C)c1ccc(N[C@H]2CC[C@@H](Oc3cc(N4CCOCC4)cc4nccnc34)CC2)nn1 [Compound 598]
c1nc2c(c(N[C@H]3CC[C@@H](Oc4cc(N5CCOCC5)cc5nccnc45)CC3)n1)COC2 [Compound 475]
COC(c1ccc(N[C@H]2CC[C@@H](Oc3cc(N4CCOCC4)cc4nccnc34)CC2)nc1)C(F)(F)F (stereo partly shown) [Compound 629]
Clc1cnc(N[C@H]2CC[C@@H](Oc3cc(N4CCOCC4)cc4nccnc34)CC2)nc1 [Compound 485]
Cc1nc(N[C@H]2CC[C@@H](Oc3cc(N4CCOCC4)cc4nccnc34)CC2)cc(N(C)C)n1 [Compound 602]
COc1nc(N[C@H]2CC[C@@H](Oc3cc(N4CCOCC4)cc4nccnc34)CC2)nc(OC)n1 [Compound 608]
c1cnc2c(O[C@H]3CC[C@@H](Nc4ncnc5ccoc45)CC3)cc(N3CCOCC3)cc2n1 [Compound 488]
CC(C)(O)c1ccnc(N[C@H]2CC[C@@H](Oc3cc(N4CCOCC4)cc4nccnc34)CC2)c1 [Compound 573]
Cc1nccnc1N[C@H]1CC[C@@H](Oc2cc(N3CCOCC3)cc3nccnc23)CC1 [Compound 335]
c1cc(N[C@H]2CC[C@@H](Oc3cc(N4CCOCC4)cc4nccnc34)CC2)n2ncnc2c1 [Compound 581]
CN1CCN(CCc2cnc(N[C@H]3CC[C@@H](Oc4cc(N5CCOCC5)cc5nccnc45)CC3)nc2)CC1 [Compound 430]
Cc1nccc(N[C@H]2CC[C@@H](Oc3cc(N4CCO[C@H](C)C4)cc4nccnc34)CC2)n1 [Compound 290]
CN1CCN(c2ncnc(N[C@H]3CC[C@@H](Oc4cc(N5CCOCC5)cc5nccnc45)CC3)c2F)CC1 [Compound 474]
CNC(=O)c1ccc(N[C@H]2CC[C@@H](Oc3cc(N4CCOCC4)cc4nccnc34)CC2)cn1 [Compound 358]
COc1cncc(N[C@H]2CC[C@@H](Oc3cc(N4CCOCC4)cc4nccnc34)CC2)c1 [Compound 446]
CN(C)c1cc(N[C@H]2CC[C@@H](Oc3cc(N4CCOCC4)cc4nccnc34)CC2)ncn1 [Compound 603]
CCc1ncnc(N[C@H]2CC[C@@H](Oc3cc(N4CC5CC(C4)O5)cc4nccnc34)CC2)c1F [Compound 318]
Fc1ccc(N[C@H]2CC[C@@H](Oc3cc(N4CCOCC4)cc4nccnc34)CC2)nc1 [Compound 622]
CN1CCC(c2ccnc(N[C@H]3CC[C@@H](Oc4cc(N5CCOCC5)cc5nccnc45)CC3)n2)CC1 [Compound 549]
COCCOc1ccnc(N[C@H]2CC[C@@H](Oc3cc(N4CCOCC4)cc4nccnc34)CC2)n1 [Compound 558]
Cc1cc(N[C@H]2CC[C@@H](Oc3cc(N4CCOCC4)cc4nccnc34)CC2)cc(C)n1 [Compound 286]
c1cc(N[C@H]2CC[C@@H](Oc3cc(N4CCOCC4)cc4nccnc34)CC2)nc(N2CCOCC2)c1 [Compound 590]
CC(C)(C)OC(=O)N1CCC(c2ccnc(N[C@H]3CC[C@@H](Oc4cc(N5CCOCC5)cc5nccnc45)CC3)n2)CC1 [Compound 557]
Cn1ccc2c(N[C@H]3CC[C@@H](Oc4cc(N5CCOCC5)cc5nccnc45)CC3)ncnc21 [Compound 384]
COc1ccc(N[C@H]2CC[C@@H](Oc3cc(N4CCOCC4)cc4nccnc34)CC2)cn1 [Compound 447]
Cc1cccc(N[C@H]2CC[C@@H](Oc3cc(N4CCOCC4)cc4nccnc34)CC2)n1 [Compound 623]
COc1cc(N[C@H]2CC[C@@H](Oc3cc(N4CCOCC4)cc4nccnc34)CC2)ccn1 [Compound 440]
c1cnc2c(O[C@H]3CC[C@@H](Nc4ncc(CCN5CCOCC5)cn4)CC3)cc(N3CCOCC3)cc2n1 [Compound 434]
Cc1cc(C)n2nc(N[C@H]3CC[C@@H](Oc4cc(N5CCOCC5)cc5nccnc45)CC3)nc2n1 [Compound 299]
c1cnc2c(O[C@H]3CC[C@@H](Nc4ncc(CCN5CCCC5)cn4)CC3)cc(N3CCOCC3)cc2n1 [Compound 432]
CN1CCN(c2ccc(N[C@H]3CC[C@@H](Oc4cc(N5CCOCC5)cc5nccnc45)CC3)nc2)CC1 [Compound 626]
FC(F)(F)c1cnc(N[C@H]2CC[C@@H](Oc3cc(N4CCOCC4)cc4nccnc34)CC2)cn1 [Compound 366]
COc1nc(N[C@H]2CC[C@@H](Oc3cc(N4CCOCC4)cc4nccnc34)CC2)c2cc[nH]c2n1 [Compound 383]
CN1CCN(c2cc(N[C@H]3CC[C@@H](Oc4cc(N5CCOCC5)cc5nccnc45)CC3)ncn2)CC1 [Compound 537]
c1cnc2c(O[C@H]3CC[C@@H](Nc4ccc5c(n4)OCCO5)CC3)cc(N3CCOCC3)cc2n1 [Compound 631]
O=C1Cc2cnc(N[C@H]3CC[C@@H](Oc4cc(N5CCOCC5)cc5nccnc45)CC3)nc2N1 [Compound 552]
O=C(O)c1cc(N[C@H]2CC[C@@H](Oc3cc(N4CCOCC4)cc4nccnc34)CC2)ccc1F [Compound 420]
O=C1Cc2c(ncnc2N[C@H]2CC[C@@H](Oc3cc(N4CCOCC4)cc4nccnc34)CC2)N1 [Compound 502]
CN(C)CCOc1ccc(N[C@H]2CC[C@@H](Oc3cc(N4CCOCC4)cc4nccnc34)CC2)nc1 [Compound 654]
FC(F)(F)c1cncc(N[C@H]2CC[C@@H](Oc3cc(N4CCOCC4)cc4nccnc34)CC2)c1 [Compound 429]
Cc1nccc(N[C@H]2C[C@@H](Oc3cc(N4CCOCC4)cc4nccnc34)C2)n1 [Compound 357]

Source: patent publication US12251387B2, “Substituted quinoxalines and benzo[c][1,2,5]oxadiazoles as DNA-PK inhibitors” (Vertex Pharmaceuticals Incorporated, priority 2013, dated 2025)
